Data as given in patent US10508120B2, “TYK2 inhibitors and uses thereof” (Nimbus Lakshmi, Inc., priority 2017, dated 2019).
Like-named read-outs stand apart in the source and are kept apart here.

How the values were obtained:
[1] = target: human TYK2 (JH2domain-pseudokinase) (Homo sapiens (Human), UniProt P29597); test: TYK2 JH2 Domain Binding Assay (KINOMEscan)
Summary of the method: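 Competition binding of a DNA-tagged fusion of human TYK2 JH2 pseudokinase (G556–D888) with NFkB DNA-binding domain, from HEK293 extracts (<0.1 nM final), against immobilised ligand beads; 1 h shaking at room temperature, 0.9% DMSO. Bound kinase quantified by qPCR.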

JAK2 kinase domain (JH1) = JAK2 kinase domain (JH1) (Homo sapiens (Human), UniProt O60674); test: JAK2 Radioactive Kinase Assay; type: biochemical; settings: read-out: JAK2 JH1% Inhibition @ 10 μM
Summary of the method: (§1)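 Compounds were tested at a single concentration of 10 μM in a radiometric kinase format against each isolated kinase domain. Activity is reported as percent inhibition at that concentration.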

[2] = target: Tyk2/JAK2 (heterodimeric complex) (Homo sapiens (Human), UniProt P29597); test: IL-12 Induced pSTAT4 in Human PBMC; type: cell-based; settings: 1.7 ng/mL IL-12
Text: The IL-12 Induced pSTAT4 assay evaluates the inhibition of IL-12 induced STAT4 phophorylation mediated by Tyk2/JAK2 (heterodimeric complex).

[3] = target: JAK2/JAK2 homdimeric complex (Homo sapiens (Human), UniProt O60674); test: GM-CSF Induced pSTAT5 in Human PBMC; type: cell-based; settings: GM-CSF 5 ng/mL for 20 minutes, pSTAT5 by MSD, read-out: PBMC_GMCSF_pSTAT5 IC50
Tyk2 kinase domain (DH1) = Tyk2 kinase domain (DH1) (Homo sapiens (Human), UniProt P29597); test: Tyk2 Radioactive Kinase Assay; type: biochemical; settings: read-out: Tyk2 JH1% Inhibition @ 10 μM
Summary of the method: as §1

Chain of JAK2/JAK2 homdimeric complex (O60674 whole entry, the tested form may be a part): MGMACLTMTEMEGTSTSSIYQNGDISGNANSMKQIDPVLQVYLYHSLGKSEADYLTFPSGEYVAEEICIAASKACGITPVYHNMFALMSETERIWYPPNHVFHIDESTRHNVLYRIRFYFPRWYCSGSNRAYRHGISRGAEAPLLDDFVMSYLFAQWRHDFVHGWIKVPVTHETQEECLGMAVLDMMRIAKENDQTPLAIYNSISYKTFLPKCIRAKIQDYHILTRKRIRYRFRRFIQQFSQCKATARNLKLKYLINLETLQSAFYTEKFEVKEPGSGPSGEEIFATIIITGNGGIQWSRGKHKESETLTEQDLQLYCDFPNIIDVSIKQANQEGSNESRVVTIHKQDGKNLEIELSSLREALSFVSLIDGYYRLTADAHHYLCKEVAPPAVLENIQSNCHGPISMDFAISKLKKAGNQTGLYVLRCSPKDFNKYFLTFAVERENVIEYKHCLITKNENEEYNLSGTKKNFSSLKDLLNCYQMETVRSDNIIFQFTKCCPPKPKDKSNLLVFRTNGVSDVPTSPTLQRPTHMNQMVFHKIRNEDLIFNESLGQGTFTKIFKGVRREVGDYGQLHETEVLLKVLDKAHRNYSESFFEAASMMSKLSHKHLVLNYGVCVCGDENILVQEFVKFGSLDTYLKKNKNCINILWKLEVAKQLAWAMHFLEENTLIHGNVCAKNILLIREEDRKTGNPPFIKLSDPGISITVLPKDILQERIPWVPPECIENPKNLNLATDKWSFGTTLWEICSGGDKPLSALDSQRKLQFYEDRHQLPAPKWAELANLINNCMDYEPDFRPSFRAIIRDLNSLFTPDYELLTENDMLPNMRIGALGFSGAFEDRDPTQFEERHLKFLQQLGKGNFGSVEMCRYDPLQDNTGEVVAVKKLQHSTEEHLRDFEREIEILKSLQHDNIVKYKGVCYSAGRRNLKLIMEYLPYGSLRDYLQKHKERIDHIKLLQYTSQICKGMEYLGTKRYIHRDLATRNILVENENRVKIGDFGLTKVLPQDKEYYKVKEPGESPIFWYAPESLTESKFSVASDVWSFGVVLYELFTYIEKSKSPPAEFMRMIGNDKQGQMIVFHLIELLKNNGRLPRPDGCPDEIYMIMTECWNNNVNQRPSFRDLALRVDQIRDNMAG
Chain of JAK2/JAK2 homdimeric complex (P32927 17-897 partner): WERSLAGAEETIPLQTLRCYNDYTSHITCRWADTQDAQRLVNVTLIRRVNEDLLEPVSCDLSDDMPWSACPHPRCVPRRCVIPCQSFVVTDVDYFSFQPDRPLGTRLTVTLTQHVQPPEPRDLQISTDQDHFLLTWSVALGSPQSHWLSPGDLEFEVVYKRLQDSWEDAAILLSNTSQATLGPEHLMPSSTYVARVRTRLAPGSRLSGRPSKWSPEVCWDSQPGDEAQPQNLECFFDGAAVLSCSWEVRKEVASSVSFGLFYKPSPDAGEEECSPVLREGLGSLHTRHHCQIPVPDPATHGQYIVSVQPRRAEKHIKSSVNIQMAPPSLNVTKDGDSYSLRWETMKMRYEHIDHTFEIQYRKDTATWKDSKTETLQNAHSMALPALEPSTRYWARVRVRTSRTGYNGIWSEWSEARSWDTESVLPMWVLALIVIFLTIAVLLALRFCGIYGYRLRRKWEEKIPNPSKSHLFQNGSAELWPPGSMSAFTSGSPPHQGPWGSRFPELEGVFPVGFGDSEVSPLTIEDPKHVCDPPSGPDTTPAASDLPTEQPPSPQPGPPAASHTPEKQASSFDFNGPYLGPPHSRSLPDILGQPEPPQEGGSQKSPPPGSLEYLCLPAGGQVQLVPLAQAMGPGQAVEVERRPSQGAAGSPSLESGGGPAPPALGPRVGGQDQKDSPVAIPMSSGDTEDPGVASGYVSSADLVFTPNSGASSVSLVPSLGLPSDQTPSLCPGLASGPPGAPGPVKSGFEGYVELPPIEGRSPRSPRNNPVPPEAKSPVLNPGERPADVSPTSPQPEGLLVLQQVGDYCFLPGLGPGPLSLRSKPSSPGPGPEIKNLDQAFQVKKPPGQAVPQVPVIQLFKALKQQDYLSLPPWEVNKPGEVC
Chain of JAK2 kinase domain (JH1) (O60674 849-1124): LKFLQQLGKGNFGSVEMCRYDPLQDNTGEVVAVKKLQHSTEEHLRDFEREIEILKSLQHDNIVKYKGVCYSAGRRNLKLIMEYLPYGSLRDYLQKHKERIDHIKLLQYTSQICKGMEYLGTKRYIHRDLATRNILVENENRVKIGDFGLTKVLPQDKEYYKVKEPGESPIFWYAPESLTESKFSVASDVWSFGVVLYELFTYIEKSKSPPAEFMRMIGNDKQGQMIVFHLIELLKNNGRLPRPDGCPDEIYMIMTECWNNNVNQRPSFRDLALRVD
Chain of Tyk2/JAK2 (heterodimeric complex) (P29597 whole entry, other chains not shown): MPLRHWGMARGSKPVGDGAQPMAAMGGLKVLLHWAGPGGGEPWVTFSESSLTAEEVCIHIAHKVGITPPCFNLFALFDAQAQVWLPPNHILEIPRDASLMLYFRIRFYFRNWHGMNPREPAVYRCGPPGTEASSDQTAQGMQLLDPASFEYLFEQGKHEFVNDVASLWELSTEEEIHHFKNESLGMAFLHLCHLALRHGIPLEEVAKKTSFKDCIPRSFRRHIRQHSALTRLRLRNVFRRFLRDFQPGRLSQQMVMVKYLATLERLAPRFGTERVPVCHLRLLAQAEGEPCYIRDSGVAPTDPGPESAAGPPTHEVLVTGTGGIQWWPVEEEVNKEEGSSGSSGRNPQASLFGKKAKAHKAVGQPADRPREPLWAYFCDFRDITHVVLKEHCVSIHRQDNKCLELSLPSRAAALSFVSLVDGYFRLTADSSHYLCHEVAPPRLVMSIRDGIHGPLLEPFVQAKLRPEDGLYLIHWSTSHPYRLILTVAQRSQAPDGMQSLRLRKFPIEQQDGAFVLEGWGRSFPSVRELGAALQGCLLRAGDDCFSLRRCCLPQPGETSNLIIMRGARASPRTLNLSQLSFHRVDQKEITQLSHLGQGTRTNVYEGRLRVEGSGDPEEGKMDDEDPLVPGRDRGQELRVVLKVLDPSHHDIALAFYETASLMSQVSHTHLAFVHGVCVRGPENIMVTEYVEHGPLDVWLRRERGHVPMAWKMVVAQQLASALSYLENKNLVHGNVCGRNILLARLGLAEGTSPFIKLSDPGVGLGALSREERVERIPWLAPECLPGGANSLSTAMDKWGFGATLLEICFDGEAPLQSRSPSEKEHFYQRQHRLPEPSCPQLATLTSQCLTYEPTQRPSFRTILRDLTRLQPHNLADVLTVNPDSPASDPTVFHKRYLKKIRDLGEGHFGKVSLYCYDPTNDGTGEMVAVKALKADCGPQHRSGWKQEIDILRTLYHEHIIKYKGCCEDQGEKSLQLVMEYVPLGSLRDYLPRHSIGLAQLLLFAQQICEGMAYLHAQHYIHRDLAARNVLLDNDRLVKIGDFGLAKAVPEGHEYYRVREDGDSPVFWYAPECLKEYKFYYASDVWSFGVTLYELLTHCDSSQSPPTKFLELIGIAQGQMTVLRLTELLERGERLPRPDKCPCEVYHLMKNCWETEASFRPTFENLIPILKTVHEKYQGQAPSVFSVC
Chain of Tyk2 kinase domain (DH1) (P29597 897-1176): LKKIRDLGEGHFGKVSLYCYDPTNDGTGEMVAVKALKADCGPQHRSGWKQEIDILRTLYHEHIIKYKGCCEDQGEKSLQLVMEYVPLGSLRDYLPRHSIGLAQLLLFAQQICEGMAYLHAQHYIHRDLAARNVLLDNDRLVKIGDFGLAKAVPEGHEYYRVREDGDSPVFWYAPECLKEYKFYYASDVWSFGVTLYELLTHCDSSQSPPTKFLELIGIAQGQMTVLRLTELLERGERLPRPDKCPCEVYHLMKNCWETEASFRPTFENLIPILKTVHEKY
Chain of human TYK2 (JH2domain-pseudokinase) (P29597 556-888): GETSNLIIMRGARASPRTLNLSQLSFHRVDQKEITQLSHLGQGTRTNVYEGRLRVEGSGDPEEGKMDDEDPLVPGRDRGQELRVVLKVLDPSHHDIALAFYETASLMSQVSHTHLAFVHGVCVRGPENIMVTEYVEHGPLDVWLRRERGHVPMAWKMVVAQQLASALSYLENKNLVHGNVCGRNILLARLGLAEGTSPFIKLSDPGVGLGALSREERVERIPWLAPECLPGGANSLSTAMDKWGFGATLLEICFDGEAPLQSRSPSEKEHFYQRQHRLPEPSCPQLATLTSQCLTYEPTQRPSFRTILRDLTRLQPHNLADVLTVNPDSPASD

SMILES | Kd [1] [nM] | inhibition at 10 µM (JAK2 kinase domain (JH1); 10 μM compound, 10 μM ATP) [%] | IC50 [2] [nM] | IC50 [3] [nM] | inhibition at 10 µM (Tyk2 kinase domain (DH1); 10 μM compound, 10 μM ATP) [%] | inhibition at 10 µM (JAK2 kinase domain (JH1); compound at 10 μM, ATP 10 μM) [%] | inhibition at 10 µM (Tyk2 kinase domain (DH1); compound at 10 μM, ATP 10 μM) [%]
CNc1cc(Nc2cccc3ocnc23)nc2c(C(=O)NC3CC3)cnn12 [I-591] | < 0.2 | – | < 100 | > 12500 | – | < 50 | < 50
CNc1cc(Nc2cc(C)cn(-c3ccn(C)n3)c2=O)nc2c(C(=O)N[C@H]3C[C@H]3F)cnn12 [I-250] | < 0.2 | – | < 100 | > 12500 | – | < 50 | < 50
CNc1cc(Nc2cc(Cl)cn(-c3ccn(C)n3)c2=O)nc2c(C(=O)N[C@H]3C[C@H]3F)cnn12 [I-309] | < 0.2 | – | < 100 | > 12500 | – | < 50 | < 50
CNc1cc(Nc2cccn(-c3ccn(C4CC4)n3)c2=O)nc2c(C(=O)N[C@@H]3C[C@@H]3F)cnn12 (stereo in doubt) [I-106, 5-((1-(1-cyclopropyl-1H-pyrazol-3-yl)-2-oxo-1,2-dihydropyridin-3-yl)amino)-N-((1R,2S)-2-fluorocyclopropyl)-7-(methylamino)pyrazolo[1,5-a]pyrimidine-3-carboxamide] | < 0.2 | – | < 100 | > 12500 | – | < 50 | < 50
CNc1cc(Nc2cccn(C3CCOCC3)c2=O)nc2c(C(=O)NC3CC3)cnn12 [I-329] | < 0.2 | – | < 100 | > 2500 | – | < 50 | < 50
CNc1cc(Nc2cccnc2OC(F)F)nc2c(C(=O)NC3CCC3)cnn12 [I-151] | < 0.2 | – | < 100 | > 50000 | – | < 50 | < 50
CNc1cc(Nc2cccn(-c3nc(C)c(C)s3)c2=O)nc2c(C(=O)N[C@H]3C[C@H]3F)cnn12 [I-292] | 0.2 to 1 | – | < 100 | > 2500 | – | < 50 | < 50
CNc1cc(Nc2cc(C)cnc2OC2CC2)nc2c(C(=O)NC3CC3)cnn12 [I-277] | 0.2 to 1 | – | 100 to 500 | > 50000 | – | < 50 | < 50
CNc1cc(Nc2cccn([C@H]3CC[C@@](C)(OC)CC3)c2=O)nc2c(C(=O)NC3CC3)cnn12 [I-359] | < 0.2 | – | 100 to 500 | > 12500 | – | < 50 | < 50
CNc1cc(Nc2cccn(C3CCCOC3)c2=O)nc2c(C(=O)NC3CCC3)cnn12 (racemic) [I-324] | < 0.2 | – | < 100 | > 50000 | – | < 50 | < 50
CNc1cc(Nc2cc(Cl)cn(-c3cnc(C(=O)N(C)C)cn3)c2=O)nc2c(C(=O)N[C@H]3C[C@H]3F)cnn12 [I-319] | < 0.2 | – | < 100 | > 2500 | – | < 50 | < 50
CNc1cc(Nc2cccn([C@H]3CCCOC3)c2=O)nc2c(C(=O)NC3CC3)cnn12 [I-352] | < 0.2 | – | < 100 | > 50000 | – | < 50 | < 50
CNc1cc(Nc2cccn(-c3ccon3)c2=O)nc2c(C(=O)NC3CCC3)cnn12 [I-158] | < 0.2 | – | < 100 | > 50000 | – | < 50 | < 50
[2H]C([2H])([2H])Oc1ncccc1Nc1cc(NC)n2ncc(C(=O)N[C@H]3CC[C@@H]3O)c2n1 [I-373] | < 0.2 | – | < 100 | > 50000 | – | < 50 | < 50
CNc1cc(Nc2cccn(-c3cc(C)on3)c2=O)nc2c(C(=O)N[C@H]3C[C@H]3F)cnn12 [I-161] | < 0.2 | – | < 100 | > 12500 | – | < 50 | < 50
CNc1cc(Nc2cc(Cl)cn(-c3ccn(C4CC4)n3)c2=O)nc2c(C(=O)NC3CC3)cnn12 [I-331] | < 0.2 | – | < 100 | > 12500 | – | < 50 | < 50
CNc1cc(-c2cn(C(C)C)c3ncccc23)nc2c(C(=O)N[C@@H]3CC[C@H]3O)cnn12 [I-640] | < 0.2 | – | < 100 | > 12500 | – | < 50 | < 50
CNc1cc(Nc2cccn(-c3cc(C)nn3C)c2=O)nc2c(C(=O)NC3CCC3)cnn12 [I-342] | 0.2 to 1 | – | < 100 | > 12500 | – | < 50 | < 50
CNc1cc(Nc2cccc(-c3nccs3)c2Cl)nc2c(C(N)=O)cnn12 [I-16] | 0.2 to 1 | – | < 100 | > 2500 | – | 70 to 90 | > 90

Next, values leading:

Kd [1] [nM] | inhibition at 10 µM (JAK2 kinase domain (JH1); 10 μM compound, 10 μM ATP) [%] | IC50 [2] [nM] | IC50 [3] [nM] | inhibition at 10 µM (Tyk2 kinase domain (DH1); 10 μM compound, 10 μM ATP) [%] | inhibition at 10 µM (JAK2 kinase domain (JH1); compound at 10 μM, ATP 10 μM) [%] | inhibition at 10 µM (Tyk2 kinase domain (DH1); compound at 10 μM, ATP 10 μM) [%] | SMILES
< 0.2 | < 50 | < 100 | > 50000 | < 50 | – | – | CNc1cc(-c2cn(C3CC3)c3ncccc23)nc2c(C(=O)NC3CC3)cnn12 [I-960, N-cyclopropyl-5-(1-cyclopropyl-1H-pyrrolo[2,3-b]pyridin-3-yl)-7-(methylamino)pyrazolo[1,5-a]pyrimidine-3-carboxamide]
< 0.2 | – | < 100 | > 12500 | – | < 50 | < 50 | CNc1cc(Nc2cccn(-c3cnc(C)o3)c2=O)nc2c(C(=O)N[C@H]3C[C@H]3F)cnn12 [I-718]
< 0.2 | < 50 | < 100 | > 50000 | < 50 | – | – | CNc1cc(Nc2cc(Cl)cn(C3CCN(C)CC3)c2=O)nc2c(C(=O)N[C@@H]3CC[C@H]3O)cnn12 [I-930]
< 0.2 | – | 100 to 500 | > 12500 | – | < 50 | < 50 | CNc1cc(Nc2cccn(-c3cccnc3)c2=O)nc2c(C(=O)NC3CC3)cnn12 [I-747]
< 0.2 | < 50 | < 100 | > 50000 | < 50 | – | – | CNC(=O)c1nscc1Nc1cc(NC)n2ncc(C(=O)N[C@@H]3C[C@@H]3F)c2n1 [I-914]
< 0.2 | – | < 100 | > 2500 | – | 50 to 70 | < 50 | CNc1cc(Nc2cccc([C@@H]3CCCOC3)n2)nc2c(C(=O)N[C@@H]3CC[C@H]3O)cnn12 [I-665]
< 0.2 | – | < 100 | > 50000 | – | < 50 | < 50 | CNc1cc(Nc2cccn(-c3ncc(OC)cc3F)c2=O)nc2c(C(=O)N[C@H]3C[C@H]3F)cnn12 [I-673]
< 0.2 | < 50 | 100 to 500 | > 50000 | < 50 | – | – | CNc1cc(Nc2cccc(N3CCO[C@]4(CCOC4)C3)n2)nc2c(C(=O)NC3CC3)cnn12 [I-827]
< 0.2 | – | < 100 | > 12500 | – | < 50 | < 50 | CNc1cc(Nc2cc(Cl)cn(C3CCOCC3)c2=O)nc2c(C(=O)N[C@H]3CC[C@@H]3O)cnn12 [I-712]
